Measured values from US8956589B2, “Imaging diagnostic agent and extracorporeal diagnostic agent for incurable neurological diseases” (Shiga University of Medical Science, priority 2009, dated 2015).

Columns and labels:
[1] = target: amyloid β peptide aggregates (1-40) (Homo sapiens (Human), UniProt P05067); assay type: binding; details: for IC50: aggregates 1 μM, thioflavin-T 3 μM, compound 0.02 to 20 μM, 30 minutes at 23° C., read-out: Amyloid binding property (IC50); for binding to amyloid β peptide aggregates (in words): thioflavin-T fluorescence inhibition
Experimental: The binding capacity of the compounds to an amyloid β peptide aggregate was quantitatively measured by a thioflavin-T fluorescence inhibition test. […] The resultant solution was cause to react for 30 minutes at 23° C. with the light shielded. Then, the fluorescence of thioflavin-T was measured under a condition of Ex=440 nm, Em=490 nm, Cutoff filter=475 nm. The IC50 values were calculated by using an analysis software, GraphPad PRISM Ver.5 (GraphPad Software, Inc.).

[2] = target: amyloid β peptide aggregates (Homo sapiens (Human), UniProt P05067); assay: Binding to and release from precipitated amyloid β peptide aggregates (absorbance of supernatant); details: compound 2 μg/mL in phosphate buffer, 1 hour reaction
Experimental: Each of compound 23, compound 1, and compound 24 is dissolved at a concentration of 2 μg/mL, in a phosphate buffer, and then amyloid β peptide aggregates are added to each solution, and the resultant solution is caused to react for 1 hour. Then, the solution is centrifuged for 10 minutes at 6,000 rpm, to separate the amyloid β peptide aggregates. A supernatant was removed, and an absorbance measurement was performed to measure the quantity of the compound that had not bound to the amyloid peptide aggregates and that were contained in the supernatant. The obtained quantity was subtracted from the original quantity of the compound, whereby the quantity of the compound that had bound to the amyloid β peptide aggregates was calculated.
Next, the precipitated amyloid β peptide aggregates were washed, a buffer was added thereto, and the quantity of the compound that got released was measured. Then, the rate of the compound that had bound to amyloid β peptide aggregates and then was eluted into the buffer was calculated using the original quantity of the compound as 100%.

Sequence of amyloid β peptide aggregates (1-40) (P05067 672-711): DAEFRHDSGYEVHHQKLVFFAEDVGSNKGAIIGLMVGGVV
Sequence of amyloid β peptide aggregates (P05067 672-711): as above

Row | IC50 ([1]; pH 7.4) | melting point | binding rate to amyloid β peptide aggregates [2] | binding to amyloid β peptide aggregates (in words) [1] | solubility remark in amyloid binding test ([1]; pH 7.4) | SMILES
1 | 1300 nM | – | – | – | – | O=C(O)CCC(C(=O)/C=C/c1ccc(O)c(OC(F)(F)F)c1)C(=O)/C=C/c1ccc(O)c(OC(F)(F)F)c1 [Compound 2, 1,7-bis(4′-hydroxy-3′-trifluoromethoxyphenyl)-4-carboxylethyl-1,6-heptadiene-3,5-dione]
2 | – | 170 to 171 °C | – | – | – | COC(=O)CCC(C(=O)/C=C/c1ccc(OC)c(F)c1)C(=O)/C=C/c1ccc(OC)c(F)c1 [Compound 3]
3 | – | 171 to 172 °C | – | – | – | COc1ccc(/C=C/C(=O)C(CCC(=O)O)C(=O)/C=C/c2ccc(OC)c(F)c2)cc1F [Compound 4]
4 | – | > 200 °C | – | – | – | COc1ccc(/C=C/C(=O)C(CCC(=O)[O-])C(=O)/C=C/c2ccc(OC)c(F)c2)cc1F.[Na+] [Compound 12]
5 | 360 nM | 183 °C | – | – | – | COC(=O)CCC(C(=O)/C=C/c1ccc(O)c(C(F)(F)F)c1)C(=O)/C=C/c1ccc(O)c(C(F)(F)F)c1 [Compound 14]
6 | – | 124 to 126 °C | – | – | – | COC(=O)CCC(C(=O)/C=C/c1ccc(O)c(OC(F)(F)F)c1)C(=O)/C=C/c1ccc(OC(C)=O)c(OC(F)(F)F)c1 (centres unmarked) [Compound 18]
7 | 500 nM | 192 to 193 °C | – | – | – | CN(C)C(=O)CCC(C(=O)/C=C/c1ccc(O)c(OC(F)(F)F)c1)C(=O)/C=C/c1ccc(O)c(OC(F)(F)F)c1 [Compound 21]
8 | 140 nM | 88 to 90 °C | – | – | – | COC(=O)COc1ccc(/C=C/C(=O)CC(=O)/C=C/c2ccc(O)c(OC)c2)cc1OC [Compound 25]
9 | 310 nM | 190 to 192 °C (dec.) | – | – | – | COc1cc(/C=C/C(=O)CC(=O)/C=C/c2ccc(OCC(=O)O)c(OC)c2)ccc1O [Compound 26]

The remaining lines, values behind:

Row | SMILES | IC50 ([1]; pH 7.4) | melting point | binding rate to amyloid β peptide aggregates [2] | binding to amyloid β peptide aggregates (in words) [1] | solubility remark in amyloid binding test ([1]; pH 7.4)
10 | COC(=O)CC(C(=O)/C=C/c1ccc(O)c(OC(F)(F)F)c1)C(=O)/C=C/c1ccc(O)c(OC(F)(F)F)c1 [Compound 5] | 520 nM | 140 to 141 °C | – | – | –
11 | COC(=O)CCCC(C(=O)/C=C/c1ccc(O)c(OC(F)(F)F)c1)C(=O)/C=C/c1ccc(O)c(OC(F)(F)F)c1 [Compound 6] | 310 nM | 147 to 148 °C | – | – | –
12 | CCOC(=O)C(C(=O)/C=C/c1ccc(O)c(OC(F)(F)F)c1)C(=O)/C=C/c1ccc(O)c(OC(F)(F)F)c1 [Compound 7] | 140 nM | 179 to 180 °C | – | – | –
13 | CCOC(=O)CCC(C(=O)/C=C/c1ccc(O)c(OC(F)(F)F)c1)C(=O)/C=C/c1ccc(O)c(OC(F)(F)F)c1 [Compound 8] | 380 nM | 155 to 156 °C | – | – | –
14 | CC(C)(C)OC(=O)CCC(C(=O)/C=C/c1ccc(O)c(OC(F)(F)F)c1)C(=O)/C=C/c1ccc(O)c(OC(F)(F)F)c1 [Compound 9] | 650 nM | 175 °C | – | – | –
15 | CC(C)OC(=O)CCC(C(=O)/C=C/c1ccc(O)c(OC(F)(F)F)c1)C(=O)/C=C/c1ccc(O)c(OC(F)(F)F)c1 [Compound 10] | – | 191 °C | – | – | –
16 | COC(=O)CCC(C(=O)/C=C/c1cc(F)c(O)c(F)c1)C(=O)/C=C/c1cc(F)c(O)c(F)c1 [Compound 11] | – | 178 to 179 °C | – | – | –
17 | CC(=O)OCCCC(C(=O)/C=C/c1ccc(O)c(OC(F)(F)F)c1)C(=O)/C=C/c1ccc(O)c(OC(F)(F)F)c1 [Compound 13, 1,7-bis(4′-hydroxy-3′-trifluoromethoxyphenyl)-4-acetoxypropyl-1,6-heptadiene-3,5-dione] | – | 130 to 131 °C | – | – | –
18 | N#CCCC(C(=O)/C=C/c1ccc(O)c(OC(F)(F)F)c1)C(=O)/C=C/c1ccc(O)c(OC(F)(F)F)c1 [Compound 15] | 300 nM | 134 to 135 °C | – | – | –
19 | CC(C(=O)/C=C/c1ccc(O)c(OC(F)(F)F)c1)C(=O)/C=C/c1ccc(O)c(OC(F)(F)F)c1 [Compound 16] | 320 nM | 178 to 179 °C | – | – | –
20 | COC(=O)CCC(C(=O)C=Cc1ccc(OC(C)=O)c(OC(F)(F)F)c1)C(=O)C=Cc1ccc(OC(C)=O)c(OC(F)(F)F)c1 (centres unmarked) [Compound 17, 1,7-bis(4′-acetoxy-3′-trifluoromethoxyphenyl)-4-methoxycarbonylethyl-1,6-heptadiene-3,5-dione] | – | 149 to 150 °C | – | – | –
21 | COCOCCCC(C(=O)/C=C/c1ccc(O)c(OC(F)(F)F)c1)C(=O)/C=C/c1ccc(O)c(OC(F)(F)F)c1 [Compound 20] | 500 nM | – | – | – | –
22 | O=C(/C=C/c1ccc(O)c(OC(F)(F)F)c1)C(CCOCCO)C(=O)/C=C/c1ccc(O)c(OC(F)(F)F)c1 [Compound 22, 1,7-bis(4′-hydroxy-3′-trifluoromethoxyphenyl)-4-(2′-hydroxyethoxyethyl)-1,6-heptadiene-3,5-dione] | 700 nM | 112 to 114 °C | – | – | –
23 | O=C(/C=C/c1ccc(O)c(OC(F)(F)F)c1)CC(=O)/C=C/c1ccc(O)c(OC(F)(F)F)c1 [Compound 23] | 210 nM | 172 to 173 °C | 85% | strongly bound | –
24 | CC(C)(C(=O)/C=C/c1ccc(O)c(OC(F)(F)F)c1)C(=O)/C=C/c1ccc(O)c(OC(F)(F)F)c1 [Compound 24, reference compound] | > 15000 nM | – | 27% | scarcely bound | –
25 | COc1cc(/C=C/C(=O)CC(=O)/C=C/c2ccc(O)c(C(F)(F)F)c2)ccc1O [Compound 27] | 130 nM | 200 °C | – | – | –
26 | CNc1ccc(/C=C/C(=O)CC(=O)/C=C/c2ccc(NC)c(C(F)(F)F)c2)cc1C(F)(F)F [Compound 28] | 5800 nM | 192 to 194 °C | – | – | hardly soluble
27 | COc1cc(/C=C/C(=O)CC(=O)/C=C/c2cncc(C(F)(F)F)c2)ccc1O [Compound 29] | 100 nM | 187 to 189 °C | – | – | –
28 | COC(=O)CCC(C(=O)/C=C/c1ccc(O)c(OC(F)(F)F)c1)C(=O)/C=C/c1ccco1 (centres unmarked) [Compound 30] | 650 nM | 141 °C | – | – | –
